This is an account of results in patent US20240182460A1, “ALLOSTERIC CHROMENONE INHIBITORS OF PHOSPHOINOSITIDE 3-KINASE (PI3K) FOR THE TREATMENT OF DISEASE” (PETRA PHARMA CORPORATION, priority 2022, published 2024).

Read-outs that look alike come from different tables or passages of the source.

This data set can be described thus: Metabolic stability and intrinsic clearance in human liver microsomes (MICS). Type of data set: in vitro ADME. The conditions noted are these: pH 7.4. The method, then:
Metabolic Stability and Intrinsic Clearance in Liver Microsomes (MICS)
One objective of this assay is to measure in vitro metabolic stability of a test compound in liver microsomes of one or more different species. The concentration of a control compound in the reaction system is evaluated by LC/MS/MS for calculating intrinsic clearance of a test compound and estimating the stability of the control compound and test compound in liver microsomes of one or more different species.
Microsomes (MICS). Human Liver Microsomes (HLM), Monkey Liver Microsomes (MKLM), Dog Liver Microsomes (DLM), Rat Liver Microsomes (RLM), and Mouse Liver Microsomes (MLM) are obtained at a concentration of 20 mg/mL protein from commercial sources and stored in a −80° C. freezer. Prior to use, liver microsomes are removed from the freezer and allowed to thaw in a 37° C. water bath and then stored on wet ice.
Stock Solutions. Test Compound (TC) Stock Solutions are prepared in DMSO at a concentration of 10 mM and stored for later use. Positive Control (PC) Stock Solutions of verapamil·HCL (FW: 491.1 g/mol) in DMSO are prepared at a concentration of 10 mM (4.91 mg/mL), and stored at the condition same as the stock solutions of test compounds.
Phosphate Buffer. Phosphate Buffer (100 mM, pH 7.4) is prepared by combining a Solution A and a Solution B as follows.
To prepare Solution A, 7.098 g of disodium hydrogen phosphate was combined with 500 mL of pure water and sonicated to dissolve. To prepare the Solution B, 3.400 g of potassium dihydrogen phosphate was combined with 250 mL of pure water and sonicated to dissolve. Solution A was placed on a stirrer and Solution B was slowly added into Solution A until the pH reached 7.4.
NADPH Solution. A 10 mM NADPH Solution is prepared by dissolving NADPH (MW: 833.4 g/mol) at 8.334 mg/mL in phosphate buffer (100 mM, pH 7.4).
Microsome Master Solution. A Microsome Master Solution is prepared by adding 6.25 μL microsomes (20 mg/mL) to 216.25 μL Phosphate Buffer (100 mM). The final concentration is Phosphate Buffer (100 mM); microsomes (0.5 mg/mL).
Dilution of Stock Solutions. The TC Stock Solutions (10 mM in DMSO) and the PC Stock Solutions (10 mM in DMSO) are diluted by adding 3 μL of the TC Stock Solution or the PC Stock Solution to 297 μL of 50% acetonitrile/50% water.
Incubation. Two separated experiments were performed as follows. a) With Cofactors (NADPH): 25 μL of 10 mM NADPH was added to the incubations. The final concentrations of
microsomes and NADPH were 0.5 mg/mL and 1 mM, respectively. b) Without Cofactors (NADPH): 25 μL of 100 mM Phosphate buffer was added to the incubations. The final concentration of microsomes was 0.5 mg/mL. The mixture was pre-warmed at 37° C. for 10 minutes.
The reaction was started with the addition of 2.5 μL of 100 μM PC solution or TC solutions.
Verapamil was used as PC in this study. The final concentration of test compound or control compound was 1 μM. The incubation solution was incubated in water batch at 37° C.
Reaction Termination. Aliquots of 30 μL were taken from the reaction solution at 0.5, 5, 15, 30 and 60 minutes and added to plates. The reaction was stopped by the addition of 5 volumes of cold acetonitrile and a solution containing 100 nM alprazolam, 200 nM caffeine and 100 nM tolbutamide.
Sampling. The plates containing the terminated reactions were centrifuged at 4000 rpm for 30 minutes. Supernatant of each compound (40 μL) was transferred into a 96-well analysis plate.
Four compound samples are pooled together into one cassette and diluted by adding 160 μL of pure water. All incubations are performed in duplicate.
Analysis and Data Processing. Quantitative LC-MS analysis is performed, and peak areas are determined from extracted ion chromatograms. Percent parent remaining was calculated from peak area of TC or PC. The slope value, k, is determined by linear regression of the natural logarithm of percent parent remaining vs. incubation time curve. […]
In general terms: Microsomes from liver hold many membrane-bound enzymes, among them those of drug oxidation.

As to `Cc1cc([C@@H](C)Oc2ccc(Cl)nc2C(N)=O)c2oc(-c3cncnc3)c(C)c(=O)c2c1` [Example 67A, 6-Chloro-3-[(1R)-1-(3,6-dimethyl-4-oxo-2-pyrimidin-5-yl-chromen-8-yl)ethoxy]pyridine-2-carboxamide], the microsomal CLint at 1 μM (human, microsomes) is less than 50 µL/min/mg.

For the compound `Cc1cc([C@@H](C)Oc2ccc(Cl)nc2C(N)=O)c2oc(-c3ccc4c(c3)C(C)(C)OC(=O)N4)c(C)c(=O)c2c1` [Example 47C, 6-Chloro-3-[(1R)-1-[2-(4,4-dimethyl-2-oxo-1H-3,1-benzoxazin-6-yl)-3,6-dimethyl-4-oxo-chromen-8-yl]ethoxy]pyridine-2-carboxamide], the microsomal CLint at 1 μM (human, microsomes) is less than 50 µL/min/mg.

Where the note is “human, microsomes”, `Cc1cc([C@@H](C)Oc2ccc(C#N)cc2C(N)=O)c2oc(-c3ccc4nn(C)cc4c3)c(C)c(=O)c2c1` [Example 108C, 5-Cyano-2-[(1R)-1-[3,6-dimethyl-2-(2-methylindazol-5-yl)-4-oxo-chromen-8-yl]ethoxy]benzamide] displayed a microsomal CLint at 1 μM of less than 50 µL/min/mg.

`Cc1cc([C@@H](C)Oc2ccc(Cl)nc2C(N)=O)c2oc(-c3cc(C#N)c4nn(C)cc4c3)c(C)c(=O)c2c1` [Example 52C, 6-Chloro-3-[(1R)-1-[2-(7-cyano-2-methyl-indazol-5-yl)-3,6-dimethyl-4-oxo-chromen-8-yl]ethoxy]pyridine-2-carboxamide]: the microsomal CLint at 1 μM (human, microsomes) was less than 50 µL/min/mg.

With `Cc1cc([C@@H](C)Oc2ccc(Cl)nc2C(N)=O)c2oc(-c3cnc4oc(C)nc4c3)c(C)c(=O)c2c1` [Example 130A, 6-Chloro-3-[(1R)-1-[3,6-dimethyl-2-(2-methyloxazolo[5,4-b]pyridin-6-yl)-4-oxo-chromen-8-yl]ethoxy]pyridine-2-carboxamide], for the setting “human, microsomes”, the microsomal CLint at 1 μM is less than 50 µL/min/mg.

In turn, `Cc1cc([C@@H](C)Oc2ccc(Cl)nc2S(N)(=O)=O)c2oc(-c3cccc(C#N)c3)c(C)c(=O)c2c1` [Example 24C, 6-Chloro-3-[(1R)-1-[2-(3-cyanophenyl)-3,6-dimethyl-4-oxo-chromen-8-yl]ethoxy]pyridine-2-sulfonamide] yielded a microsomal CLint at 1 μM (human, microsomes) of less than 50 µL/min/mg.

Under “human, microsomes”, `Cc1cc([C@@H](C)Oc2ccc(Cl)nc2S(C)(=N)=O)c2oc(-c3cnn(C)c3)c(C)c(=O)c2c1` (stereo partly drawn) [Example 147A, 8-[(1R)-1-[[6-Chloro-2-(methylsulfonimidoyl)-3-pyridyl]oxy]ethyl]-3,6-dimethyl-2-(1-methylpyrazol-4-yl)chromen-4-one] returned a microsomal CLint at 1 μM of less than 50 µL/min/mg.

On to `Cc1cc([C@@H](C)Oc2ccc(Cl)nc2S(N)(=O)=O)c2oc(-c3cnn(CC4(O)CC4)c3)c(C)c(=O)c2c1` [Example 128C, 6-Chloro-3-[(1R)-1-[2-[1-[(1-hydroxycyclopropyl)methyl]pyrazol-4-yl]-3,6-dimethyl-4-oxo-chromen-8-yl]ethoxy]pyridine-2-sulfonamide], for which the microsomal CLint at 1 μM (human, microsomes) is less than 50 µL/min/mg.

Take `Cc1cc([C@@H](C)Oc2ccc(Cl)nc2-c2noc(=O)[nH]2)c2oc(C3CC3)c(C)c(=O)c2c1` [Example 64A, 3-[6-Chloro-3-[(1R)-1-(2-cyclopropyl-3,6-dimethyl-4-oxo-chromen-8-yl)ethoxy]-2-pyridyl]-4H-1,2,4-oxadiazol-5-lone]: for the setting “human, microsomes”, the microsomal CLint at 1 μM was less than 50 µL/min/mg.

Turning to `Cc1cc([C@@H](C)Oc2ccc(F)nc2S(N)(=O)=O)c2oc(-c3cnc4ccoc4c3)c(C)c(=O)c2c1` [Example 73C, 6-Fluoro-3-[(1R)-1-(2-furo[3,2-b]pyridin-6-yl-3,6-dimethyl-4-oxo-chromen-8-yl)ethoxy]pyridine-2-sulfonamide], the microsomal CLint at 1 μM (human, microsomes) was less than 50 µL/min/mg.

In turn, `Cc1cc([C@@H](C)Oc2ccc(Cl)nc2S(N)(=O)=O)c2oc(-c3cnc(C)o3)c(C)c(=O)c2c1` [Example 10C, 6-Chloro-3-[(1R)-1-[3,6-dimethyl-2-(2-methyloxazol-5-yl)-4-oxo-chromen-8-yl]ethoxy]pyridine-2-sulfonamide] yielded a microsomal CLint at 1 μM (human, microsomes) of less than 50 µL/min/mg.

Compound `COc1cc(-c2oc3c([C@@H](C)Oc4ccc(Cl)nc4C(N)=O)cc(C)cc3c(=O)c2C)cc2cn(C)nc12` [Example 44C, 6-Chloro-3-[(1R)-1-[2-(7-methoxy-2-methyl-indazol-5-yl)-3,6-dimethyl-4-oxo-chromen-8-yl]ethoxy]pyridine-2-carboxamide] displayed a microsomal CLint at 1 μM (human, microsomes) of less than 50 µL/min/mg.

Regarding `Cc1cc([C@@H](C)Oc2ccc(Cl)nc2C(N)=O)c2oc(-c3cnccn3)c(C)c(=O)c2c1` [Example 78C, 6-Chloro-3-[(1R)-1-(3,6-dimethyl-4-oxo-2-pyrazin-2-yl-chromen-8-yl)ethoxy]pyridine-2-carboxamide], for the setting “human, microsomes”, the microsomal CLint at 1 μM was less than 50 µL/min/mg.

The compound `Cc1cc([C@@H](C)Oc2cccnc2C(=O)NOC(C)(C)C)c2oc(-c3ccc4nn(C)cc4c3)c(C)c(=O)c2c1` [Example 24A, N-tert-Butoxy-3-[(1R)-1-[3,6-dimethyl-2-(2-methylindazol-5-yl)-4-oxo-chromen-8-yl]ethoxy]pyridine-2-carboxamide] came in with a microsomal CLint at 1 μM (human, microsomes) of less than 50 µL/min/mg.

Take `Cc1cc([C@@H](C)Oc2cccc(F)c2-c2noc(=O)[nH]2)c2oc(-c3ccccc3)c(C)c(=O)c2c1` [Example 5, 3-[2-[(1R)-1-(3,6-Dimethyl-4-oxo-2-phenyl-chromen-8-yl)ethoxy]-6-fluoro-phenyl]-4H-1,2,4-oxadiazol-5-one]: the microsomal CLint at 1 μM (human liver microsomes 0.5 mg/mL, 1 μM compound, read-out: intrinsic clearance in human MICS) was less than 50 µL/min/mg.

For `Cc1cc([C@@H](C)Oc2ccc(Cl)nc2C(N)=O)c2oc(-c3cnc4nn(C)cc4c3)c(C)c(=O)c2c1` [Example 137A, 6-Chloro-3-[(1R)-1-[3,6-dimethyl-2-(2-methylpyrazolo[3,4-b]pyridin-5-yl)-4-oxo-chromen-8-yl]ethoxy]pyridine-2-carboxamide], the microsomal CLint at 1 μM (human, microsomes) is less than 50 µL/min/mg.

Regarding `Cc1cc([C@@H](C)Oc2ccc(Cl)nc2C(=O)NOC(C)(C)C)c2oc(-c3ccc4nn(C)cc4c3)c(C)c(=O)c2c1` [Example 27A, N-tert-Butoxy-6-chloro-3-[(1R)-1-[3,6-dimethyl-2-(2-methylindazol-5-yl)-4-oxo-chromen-8-yl]ethoxy]pyridine-2-carboxamide], the microsomal CLint at 1 μM (human, microsomes) was less than 50 µL/min/mg.

`Cc1cc([C@@H](C)Oc2ccc(Cl)nc2C(N)=O)c2oc(-c3cc4cn(C)nc4cc3F)c(C)c(=O)c2c1` [Example 42C, 6-Chloro-3-[(1R)-1-[2-(6-fluoro-2-methyl-indazol-5-yl)-3,6-dimethyl-4-oxo-chromen-8-yl]ethoxy]pyridine-2-carboxamide] had a microsomal CLint at 1 μM (human, microsomes) of less than 50 µL/min/mg.

Consider `Cc1cc([C@@H](C)Oc2ccc(Cl)nc2S(N)(=O)=O)c2oc(-c3ccc(C#N)cc3)c(C)c(=O)c2c1` [Example 25C, 6-Chloro-3-[(1R)-1-[2-(4-cyanophenyl)-3,6-dimethyl-4-oxo-chromen-8-yl]ethoxy]pyridine-2-sulfonamide], for which the microsomal CLint at 1 μM (human, microsomes) was less than 50 µL/min/mg.
